Measured values taken from ChEMBL document CHEMBL5608199, “Quaternized antimicrobial peptide mimics based on harmane as potent anti-MRSA agents by multi-target mechanism covering cell wall, cell membrane and intracellular targets” (Eur J Med Chem, 2024).
In brackets after ≈: the same amount, converted by molar mass. Activity calls are given as the source filed them. The rule behind the calls is not given here.

Experiments:
[1] = system: Staphylococcus aureus; assay: Antibacterial activity against methicillin-resistant Staphylococcus aureus; type: functional
[2] = system: Staphylococcus aureus; assay: Antibacterial activity against methicillin-resistant Staphylococcus aureus ATCC 33591 assessed as reduction in metabolic activity by alamar blue assay; type: functional, organism-based; details: dose 0-4 µg/ml
[3] = system: Staphylococcus aureus; assay: Induction of ROS generation in methicillin-resistant Staphylococcus aureus ATCC 33591 assessed as fold increase in ROS level at 0.5 ug/ml relative to control; type: functional; details: dose 0.5 µg/ml
[4] = system: Lipoteichoic acid; assay: Displacement of BODIPY-TR-cadaverine from methicillin-resistant Staphylococcus aureus ATCC 33591 lipoteichoic acid assessed as increase in fluorescence intensity; details: dose 0.5-4 µg/ml
[5] = system: Staphylococcus aureus; assay: Antibacterial activity against methicillin-resistant Staphylococcus aureus ATCC 33591 infected in cyclophosphamide treated female KM mouse skin infection model assessed as reduction in bacterial load in abscess administered for 4 days and measured on day 5; type: functional, organism-based; details: dose 3.3-13.2 mg/kg, time 5.0 day
[6] = system: Staphylococcus aureus; assay: Antibacterial activity against methicillin-resistant Staphylococcus aureus ATCC 33591 incubated for 18 hrs by two fold serial broth dilution method; type: functional
[7] = system: Staphylococcus aureus; assay: Antibacterial activity against methicillin-resistant Staphylococcus aureus ATCC 43300 incubated for 18 hrs by two fold serial broth dilution method; type: functional
[8] = system: Staphylococcus aureus; assay: Antibacterial activity against methicillin-resistant Staphylococcus aureus ATCC 33591 assessed as reduction in LDH activity; type: functional, organism-based; details: dose 0-4 µg/ml
[9] = system: Calf thymus DNA; assay: Binding affinity to calf thymus DNA assessed as reduction in fluorescence intensity at 3 x 10^-5M by fluorescence spectroscopy; type: nucleic-acid assay; details: Bos taurus; dose 3.0 10^-5M
[10] = system: Staphylococcus aureus; assay: Antibacterial activity against methicillin-resistant Staphylococcus aureus clinical isolate M-20 incubated for 18 hrs by two fold serial broth dilution method; type: functional
[11] = system: Staphylococcus aureus; assay: Induction of morphological changes in methicillin-resistant Staphylococcus aureus ATCC 33591 assessed as appearance of irregular cell morphology at 1 ug/ml measured after 6 hrs by SEM analysis; type: functional, organism-based; details: dose 1.0 µg/ml
[12] = system: Staphylococcus aureus; assay: Antibacterial activity against methicillin-resistant Staphylococcus aureus clinical isolate M-17 incubated for 18 hrs by two fold serial broth dilution method; type: functional
[13] = system: Cell membrane; assay: Induction of membrane depolarization in methicillin-resistant Staphylococcus aureus ATCC 33591 assessed as increase in fluorescence intensity at 1 to 4 times MIC measured after 0 to 120 mins by DiSC3(5) staining based assay; type: cell membranes; details: time 0-120 min
[14] = system: Cell membrane; assay: Disruption of membrane integrity in methicillin-resistant Staphylococcus aureus ATCC 33591 assessed as fold increase in nucleic acid leakage at 1 ug/ml relative to control; type: cell membranes; details: dose 1.0 µg/ml
[15] = system: Staphylococcus aureus; assay: Antibacterial activity against methicillin-resistant Staphylococcus aureus ATCC 33591 assessed as neutralization of negative charge in cell wall by measuring increase in surface potential; type: functional, organism-based; details: dose 0-256 µg/ml
[16] = system: Staphylococcus aureus; assay: Induction of oxidative damage in methicillin-resistant Staphylococcus aureus ATCC 33591 assessed as reduction in SOD activity; type: functional, organism-based; details: dose 0-4 µg/ml
[17] = system: Staphylococcus aureus; assay: Induction of oxidative damage in methicillin-resistant Staphylococcus aureus ATCC 33591 assessed as loss of GSH activity; type: functional, organism-based; details: dose 0-4 µg/ml
[18] = system: Staphylococcus aureus; assay: Induction of morphological changes in methicillin-resistant Staphylococcus aureus ATCC 33591 assessed as appearance of cracked cell morphology at 1 ug/ml measured after 6 hrs by SEM analysis; type: functional, organism-based; details: dose 1.0 µg/ml
[19] = system: Staphylococcus aureus; assay: Antibacterial activity against methicillin-resistant Staphylococcus aureus ATCC 33591 assessed as reduction in LDH activity at 4 ug/ml measured after 8 hrs relative to control; type: functional; parameters: scale not given: the % may be the effect or the level left; details: dose 4 µg/ml
[20] = system: Staphylococcus aureus; assay: Antibacterial activity against methicillin-resistant Staphylococcus aureus ATCC 33591 infected in cyclophosphamide treated female KM mouse skin infection model assessed as reduction in number of bacterial clones in skin at 3.3 to 13.2 mg/kg administered for 4 days and measured on day 5; type: functional, organism-based; details: dose 3.3-13.2 mg/kg, time 5.0 day
[21] = Cytotoxicity against human HTR-8/SVneo cells assessed as cell viability at 0.5 ug/ml by CCK-8 assay relative to control; type: toxicity, cell-based; details: at 0.5 µg/mL, read-out: Activity
[22] = system: Cell membrane; assay: Disruption of membrane integrity in methicillin-resistant Staphylococcus aureus ATCC 33591 assessed as increase in nucleic acid leakage; type: cell membranes; details: dose 0-4 µg/ml
[23] = system: Staphylococcus aureus; assay: Antibacterial activity against methicillin-resistant Staphylococcus aureus clinical isolate M-18 incubated for 18 hrs by two fold serial broth dilution method; type: functional
[24] = system: Staphylococcus aureus; assay: Antibacterial activity against methicillin-resistant Staphylococcus aureus clinical isolate M-16 incubated for 18 hrs by two fold serial broth dilution method; type: functional
[25] = system: Cell membrane; assay: Induction of membrane depolarization in methicillin-resistant Staphylococcus aureus ATCC 33591 assessed as increase in fluorescence intensity at 1 to 4 times MIC by DiSC3(5) staining based assay; type: cell membranes; details: time 0-120 min, TDE = time-dependent effect
[26] = Cytotoxicity against human HTR-8/SVneo cells assessed as cell viability at 8 ug/ml by CCK-8 assay relative to control; type: toxicity, cell-based; details: at 8 µg/mL, read-out: Activity
[27] = Hemolytic activity at sheep Red blood cells at 256 ug/ml; type: toxicity, cell-based, Ovis aries, Erythrocyte; details: sheep red blood cells (erythrocytes), at 256 µg/mL, read-out: Activity
[28] = system: Staphylococcus aureus; assay: Antibacterial activity against methicillin-resistant Staphylococcus aureus ATCC 33591 infected in cyclophosphamide treated female KM mouse skin infection model assessed as reduction in inflammatory cell infiltration at 3.3 to 13.2 mg/kg administered for 4 days and measured on day 5 by H and E staining based analysis; type: functional, organism-based; details: dose 3.3-13.2 mg/kg, time 5.0 day
[29] = system: Staphylococcus aureus; assay: Bactericidal activity against methicillin-resistant Staphylococcus aureus ATCC 33591 assessed as log reduction in viable bacterial count at 8 times MIC measured after 10 hrs by time-kill assay; type: functional
[30] = system: Staphylococcus aureus; assay: Induction of ROS generation in methicillin-resistant Staphylococcus aureus ATCC 33591 assessed as increase in ROS level; type: functional, organism-based; details: dose 0-4 µg/ml
[31] = system: Erythrocyte; assay: Hemolytic activity at sheep Red blood cells at 0.5 to 128 ug/ml; type: toxicity, cell-based, Ovis aries; details: dose 0.5-128 µg/ml
[32] = system: Staphylococcus aureus; assay: Bacteriostatic activity against methicillin-resistant Staphylococcus aureus ATCC 33591 assessed as log reduction in viable bacterial count at 1 to 4 times MIC measured at 10 hrs by time-kill assay; type: functional
[33] = system: Staphylococcus aureus; assay: Antibacterial activity against methicillin-resistant Staphylococcus aureus CGMCC 1.12409 incubated for 18 hrs by two fold serial broth dilution method; type: functional
[34] = system: Cell membrane; assay: Disruption of membrane integrity in methicillin-resistant Staphylococcus aureus ATCC 33591 assessed as increase in fluorescence intensity by PI staining based fluorescence assay; type: cell membranes; details: dose 0-4 µg/ml
[35] = system: Staphylococcus aureus; assay: Antibacterial activity against Staphylococcus aureus ATCC 29213 incubated for 18 hrs by two fold serial broth dilution method; type: functional
[36] = system: Cell membrane; assay: Disruption of membrane integrity in methicillin-resistant Staphylococcus aureus ATCC 33591 assessed as increase in protein leakage; type: cell membranes; details: dose 0-4 µg/ml
[37] = system: Staphylococcus aureus; assay: Antibacterial activity against methicillin-resistant Staphylococcus aureus ATCC 33591 infected in cyclophosphamide treated female KM mouse skin infection model assessed as log reduction in bacterial load in abscess at 3.3 mg/kg administered for 4 days and measured on day 5; type: functional; details: time 5 day
[38] = system: Escherichia coli; assay: Antibacterial activity against Escherichia coli ATCC 8739 incubated for 18 hrs by two fold serial broth dilution method; type: functional
[39] = system: Staphylococcus aureus; assay: Induction of morphological changes in methicillin-resistant Staphylococcus aureus ATCC 33591 assessed as appearance of adhesive cell morphology at 1 ug/ml measured after 6 hrs by SEM analysis; type: functional, organism-based; details: dose 1.0 µg/ml
[40] = system: Staphylococcus aureus; assay: Antibacterial activity against methicillin-resistant Staphylococcus aureus clinical isolate M-14 incubated for 18 hrs by two fold serial broth dilution method; type: functional
[41] = system: Staphylococcus aureus; assay: Antibacterial activity against methicillin-resistant Staphylococcus aureus ATCC 33591 assessed as inhibition of bacterial growth at 0.5 ug/ml measured after 8 hrs relative to control; type: functional
[42] = system: Cell membrane; assay: Disruption of membrane integrity in methicillin-resistant Staphylococcus aureus ATCC 33591 assessed as appearance of blue and green fluorescence at 1 ug/ml by DAPI/SYTOX Green double staining assay; type: cell membranes; details: dose 1.0 µg/ml
[43] = system: Staphylococcus aureus; assay: Antibacterial activity against methicillin-resistant Staphylococcus aureus ATCC 33591 assessed as inhibition of bacterial growth in presence of 0 to 128 ug/ml peptidoglycan by exogenous addition assay (reference value: 0.5 ug/ml); type: functional
[44] = system: Staphylococcus aureus; assay: Antibacterial activity against methicillin-resistant Staphylococcus aureus ATCC 33591 infected in cyclophosphamide treated female KM mouse skin infection model assessed as log reduction in bacterial load in abscess at 13.2 mg/kg administered for 4 days and measured on day 5; type: functional; details: time 5 day
[45] = system: Staphylococcus aureus; assay: Antibacterial activity against Staphylococcus aureus CMCC 26003 incubated for 18 hrs by two fold serial broth dilution method; type: functional
[46] = system: Staphylococcus aureus; assay: Antibacterial activity against methicillin-resistant Staphylococcus aureus clinical isolate M-19 incubated for 18 hrs by two fold serial broth dilution method; type: functional
[47] = system: Staphylococcus aureus; assay: Antibacterial activity against methicillin-resistant Staphylococcus aureus clinical isolate M-15 incubated for 18 hrs by two fold serial broth dilution method; type: functional
[48] = Stability in sheep plasma assessed as increase in MIC measured after 0 to 6 hrs; type: ADME, cell-free, Ovis aries; details: time 0-6 hrs
[49] = system: Calf thymus DNA; assay: Binding affinity to calf thymus DNA assessed as increase in absorption wavelength intensity at 0 to 2.4 x 10^-5M by absorption spectroscopy; type: nucleic-acid assay; details: Bos taurus; dose 0-2.4 10^-5M
[50] = system: Staphylococcus sp.; assay: Antibacterial activity against Staphylococcus sp. 772 assessed as inhibition of bacterial growth incubated for 24 hrs by microdilution method; type: functional

COc1ccc2c(c1)c1cc[n+](C)cc1n2CCCCCCCCn1c2ccc(OC)cc2c2cc[n+](C)cc21.[I-].[I-]
MIC [1]: 2 µg/mL

Cc1c2c(cc[n+]1C)c1ccccc1n2CCCCCCCCn1c2ccccc2c2cc[n+](C)c(C)c21.[I-].[I-]
Activity [2]: Dose-Dependent Effect | fold change (FC) [3]: 1.25 | Activity [4]: Dose-Dependent Effect | Activity [5]: Dose-Dependent Effect | MIC [6]: 0.5 µg/mL | MIC [7]: 2 µg/mL | Activity [8]: Dose-Dependent Effect | Activity [9]: Active | MIC [10]: 1 µg/mL | Activity [11]: Active | MIC [12]: 1 µg/mL | Activity [13]: Dose-Dependent Effect | fold change (FC) [14]: 28 | Activity [15]: Dose-Dependent Effect | Activity [16]: Dose-Dependent Effect | Activity [17]: Dose-Dependent Effect | Activity [18]: Active | Activity [19]: 87.21% | Activity [20]: Active | viability at 0.5 ug/ml [21]: 110% | Activity [22]: Dose-Dependent Effect | MIC [23]: 2 µg/mL | MIC [24]: 1 µg/mL | Activity [25]: Tde | viability at 8 ug/ml [26]: 97.8% | hemolysis at 256 ug/ml [27]: 7.71% | Activity [28]: Active | log(activity) [29]: 3.44 | Activity [30]: Dose-Dependent Effect | Activity [31]: Non-Toxic | log(activity) [32]: <3 | MIC [33]: 1 µg/mL | Activity [34]: Dose-Dependent Effect | MIC [35]: 4 µg/mL | Activity [36]: Dose-Dependent Effect | log(activity) [37]: 1.27 | MIC [38]: 8 µg/mL | Activity [39]: Active | MIC [40]: 1 µg/mL | inhibition at 0.5 µg/mL [41]: 100% | Activity [42]: Active | MIC [43]: 8 µg/mL | log(activity) [44]: 4.06 | MIC [45]: 0.5 µg/mL | MIC [46]: 1 µg/mL | MIC [47]: 2 µg/mL | Stability [48]: Stable | Activity [49]: Active

Cc1nccc2c1[nH]c1ccccc12 [HARMAN]
MIC [6]: 128 µg/mL (≈ 702 µM) | MIC [7]: 128 µg/mL (≈ 702 µM) | MIC [50]: 18 µg/mL (≈ 98.8 µM) | MIC [33]: > 128 µg/mL | MIC [35]: 128 µg/mL (≈ 702 µM) | MIC [38]: 8 µg/mL (≈ 43.9 µM) | MIC [45]: 128 µg/mL (≈ 702 µM)
